From ChEMBL document CHEMBL4229400, “Covalent inhibitors of nicotinamide N-methyltransferase (NNMT) provide evidence for target engagement challenges in situ” (Bioorg Med Chem Lett, 2018)
Numbering of substitutions follows the chain as printed. The source made the active and inactive calls. The calls are words filed in the database; no cut-off is given here.

Key:
[1] = biological target: T1, Nicotinamide N-methyltransferase (Homo sapiens) (UniProt P40261); assay: Binding affinity to NNMT C165 residue in human 786-O cell soluble proteomic lysate at 1 to 5 uM incubated for 1 hr followed by cell lysis by IA-alkyne probe based isoTOP-ABPP analysis
T1 sequence (whole entry): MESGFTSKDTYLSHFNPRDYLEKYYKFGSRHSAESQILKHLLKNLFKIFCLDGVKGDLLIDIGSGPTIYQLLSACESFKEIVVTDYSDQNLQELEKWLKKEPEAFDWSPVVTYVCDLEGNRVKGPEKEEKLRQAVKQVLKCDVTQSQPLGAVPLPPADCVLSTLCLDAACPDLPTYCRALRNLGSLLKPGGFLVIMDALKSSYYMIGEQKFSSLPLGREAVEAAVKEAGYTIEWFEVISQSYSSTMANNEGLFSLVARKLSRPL

[2] = biological target: T2, Glutathione S-transferase omega-1 (Homo sapiens) (UniProt P78417); assay: Binding affinity to GSTO1 cysteine residue in human 786-O cell soluble proteomic lysate at 5 uM incubated for 1 hr followed by cell lysis by IA-alkyne probe based isoTOP-ABPP analysis
T2 sequence (whole entry): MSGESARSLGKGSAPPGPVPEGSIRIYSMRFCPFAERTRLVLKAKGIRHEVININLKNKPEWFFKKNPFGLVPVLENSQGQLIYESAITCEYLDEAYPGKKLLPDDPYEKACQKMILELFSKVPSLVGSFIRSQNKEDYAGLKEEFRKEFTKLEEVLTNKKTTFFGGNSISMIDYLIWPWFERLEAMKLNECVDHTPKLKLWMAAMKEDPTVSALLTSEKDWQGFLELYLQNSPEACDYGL

[3] = biological target: T1, Nicotinamide N-methyltransferase (Homo sapiens); assay: (§1) Inhibition of NNMT in human 786-O cell lysate using d4-nicotinamide as substrate preincubated for 1 hr followed by substrate and SAM addition measured after 15 to 30 mins by LC-MS analysis
[4] = biological target: T3, Nicotinamide N-methyltransferase (Homo sapiens, UniProt P40261); assay: as §1
T3 sequence (P40261 whole entry): T1 sequence (whole entry)

[5] = biological target: T1, Nicotinamide N-methyltransferase (Homo sapiens); assay: Binding affinity to NNMT C165 residue in human 786-O cell lysate at 5 uM incubated for 4 hrs followed by cell lysis by IA-alkyne probe based isoTOP-ABPP analysis
[6] = biological target: T1, Nicotinamide N-methyltransferase (Homo sapiens); assay: (§2) Inhibition of SAH-rhodamine binding to NNMT in human 786-O cell soluble proteomic lysate preincubated for 1 hr followed by SAH-rhodamine addition measured after 5 mins by Gel-based ABPP analysis
[7] = biological target: T3, Nicotinamide N-methyltransferase; assay: as §2
[8] = biological target: T1, Nicotinamide N-methyltransferase (Homo sapiens); assay: Binding affinity to NNMT C50 residue in human 786-O cell soluble proteomic lysate at 5 uM incubated for 1 hr followed by cell lysis by IA-alkyne probe based isoTOP-ABPP analysis relative to control
[9] = biological target: T1, Nicotinamide N-methyltransferase (Homo sapiens); assay: Binding affinity to NNMT C75 residue in human 786-O cell soluble proteomic lysate at 5 uM incubated for 1 hr followed by cell lysis by IA-alkyne probe based isoTOP-ABPP analysis relative to control
[10] = biological target: T1, Nicotinamide N-methyltransferase (Homo sapiens); assay: Inhibition of SAH-rhodamine binding to NNMT in human 786-O cell soluble proteomic lysate at 2 uM preincubated for 1 hr followed by SAH-rhodamine addition measured after 5 mins by Gel-based ABPP analysis
[11] = system: T4, Nicotinamide N-methyltransferase (Homo sapiens), P40261 [C165A]; assay: Inhibition of NNMT C165A mutant in human 786-O cell lysate using d4-nicotinamide as substrate preincubated for 1 hr followed by substrate and SAM addition measured after 15 to 30 mins by LC-MS analysis
T4 sequence (whole entry): T1 sequence (whole entry) with C165A

[12] = biological target: T5, Heme oxygenase 2 (Homo sapiens) (UniProt P30519); assay: Binding affinity to HMOX2 cysteine residue in human 786-O cell soluble proteomic lysate at 5 uM incubated for 1 hr followed by cell lysis by IA-alkyne probe based isoTOP-ABPP analysis
T5 sequence (whole entry): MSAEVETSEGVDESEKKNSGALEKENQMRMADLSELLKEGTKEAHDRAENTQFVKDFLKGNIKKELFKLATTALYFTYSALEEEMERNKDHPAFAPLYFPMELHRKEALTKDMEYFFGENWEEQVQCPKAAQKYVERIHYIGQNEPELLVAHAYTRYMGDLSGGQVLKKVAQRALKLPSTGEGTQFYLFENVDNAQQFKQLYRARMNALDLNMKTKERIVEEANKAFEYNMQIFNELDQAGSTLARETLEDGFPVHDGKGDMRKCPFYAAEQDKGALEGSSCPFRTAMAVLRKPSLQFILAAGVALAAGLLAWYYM

[13] = biological target: T6, Cytoskeleton-associated protein 4 (Homo sapiens) (UniProt Q07065); assay: Binding affinity to CKAP4 cysteine residue in human 786-O cell soluble proteomic lysate at 5 uM incubated for 1 hr followed by cell lysis by IA-alkyne probe based isoTOP-ABPP analysis
T6 sequence (whole entry): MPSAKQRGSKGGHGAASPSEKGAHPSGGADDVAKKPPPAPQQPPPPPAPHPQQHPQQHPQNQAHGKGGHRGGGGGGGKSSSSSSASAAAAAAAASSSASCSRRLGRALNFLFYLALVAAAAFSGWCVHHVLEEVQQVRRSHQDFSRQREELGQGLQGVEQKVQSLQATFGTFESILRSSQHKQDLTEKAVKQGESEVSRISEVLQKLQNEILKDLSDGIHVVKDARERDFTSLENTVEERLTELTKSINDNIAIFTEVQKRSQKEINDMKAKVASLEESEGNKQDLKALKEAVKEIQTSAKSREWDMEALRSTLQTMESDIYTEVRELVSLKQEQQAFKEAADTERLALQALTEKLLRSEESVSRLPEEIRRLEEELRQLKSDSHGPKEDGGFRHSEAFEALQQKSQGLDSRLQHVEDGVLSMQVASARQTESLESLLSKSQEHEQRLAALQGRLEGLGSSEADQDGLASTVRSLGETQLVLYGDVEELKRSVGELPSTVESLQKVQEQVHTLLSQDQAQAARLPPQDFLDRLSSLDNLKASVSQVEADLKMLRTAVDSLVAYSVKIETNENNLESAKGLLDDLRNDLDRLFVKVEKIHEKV

[14] = biological target: T1, Nicotinamide N-methyltransferase (Homo sapiens); assay: Inhibition of SAH-rhodamine binding to NNMT in human 786-O cell soluble proteomic lysate assessed as ratio of observed rate constant to test compound concentration preincubated for 10 to 40 mins followed by SAH-rhodamine addition measured after 5 mins by Gel-based ABPP analysis
[15] = biological target: T1, Nicotinamide N-methyltransferase (Homo sapiens); assay: Binding affinity to NNMT C165 residue in human 786-O cell soluble proteomic lysate at 5 uM incubated for 1 hr followed by cell lysis by IA-alkyne probe based isoTOP-ABPP analysis relative to control
[16] = biological target: T1, Nicotinamide N-methyltransferase (Homo sapiens); assay: Binding affinity to NNMT C115 residue in human 786-O cell soluble proteomic lysate at 5 uM incubated for 1 hr followed by cell lysis by IA-alkyne probe based isoTOP-ABPP analysis relative to control

Activity [1]: Active
Activity [2]: Active
inhibition [3]: Dose-dependent effect
IC50 [4]: 200 nM
Activity [5]: inactive
inhibition [6]: Dose-dependent effect
IC50 [7]: 410 nM
fold change (FC) [8]: 1.3
fold change (FC) [9]: 1.3
inhibition [10]: Active
inhibition [11]: inactive
Activity [12]: Active
Activity [13]: Active
Ratio [14]: 200 M⁻¹ s⁻¹
fold change (FC) [15]: 20
fold change (FC) [16]: 1
SMILES: CC(C)CCN(C(=O)CCl)c1cc(C(=O)Nc2cccnc2Cl)cc(C(F)(F)F)c1
